We go through eight compounds from patent publication US5885968A, “Triantennary cluster glycosides, their preparation and use” (Rijksuniversiteit te Leiden, priority 1992, dated 1999).

Read-outs that look alike come from different tables or passages of the source. Where only a bound is given, the exact number is not on record here.

The target in experiment [1] is T1, asialoglycoprotein receptor (Rattus norvegicus, UniProt P02706+P08290).
T1 construct: parenchymal cells isolated from rat liver; endogenous in cells; host or cells: primary parenchymal cells (hepatocytes) isolated from rat liver
T1 sequence (P02706 1-284): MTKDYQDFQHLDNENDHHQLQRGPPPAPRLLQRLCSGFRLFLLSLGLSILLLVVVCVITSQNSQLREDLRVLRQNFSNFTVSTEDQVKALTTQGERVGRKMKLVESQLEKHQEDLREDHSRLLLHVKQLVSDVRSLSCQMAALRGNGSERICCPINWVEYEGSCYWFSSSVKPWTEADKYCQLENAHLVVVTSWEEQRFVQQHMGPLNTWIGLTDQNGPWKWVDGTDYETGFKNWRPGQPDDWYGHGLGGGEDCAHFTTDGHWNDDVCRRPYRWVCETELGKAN
T1 sequence (P08290 1-301): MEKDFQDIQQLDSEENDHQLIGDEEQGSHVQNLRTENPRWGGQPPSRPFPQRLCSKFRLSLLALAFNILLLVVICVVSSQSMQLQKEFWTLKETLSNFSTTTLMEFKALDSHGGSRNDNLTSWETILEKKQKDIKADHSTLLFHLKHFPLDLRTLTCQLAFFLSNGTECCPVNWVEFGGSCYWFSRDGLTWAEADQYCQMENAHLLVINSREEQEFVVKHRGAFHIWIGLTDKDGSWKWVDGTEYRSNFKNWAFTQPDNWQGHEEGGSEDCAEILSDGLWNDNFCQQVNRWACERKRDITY
The experiment is described as follows: Inhibition of binding of radiolabeled asialoorosomucoid to rat liver parenchymal cells. As to conditions: for Ki: rat liver parenchymal cells, labeled asialoorosomucoid. From the text: The affinity of cluster glycosides can be verified by means of binding studies. In them, it is considered to what extent the compounds are capable of inhibiting the binding of the radioisotopically labeled asioloorosomucoid to parenchymal cells isolated from rat liver according to a previously described procedure (ref 17). The sugar concentration at which inhibition arises is a measure of the affinity.

Experiment [2] concerns the target T2, Fuc/Gal receptor on the hepatic Kupffer cell (Rattus norvegicus, UniProt P10716).
T2 construct: Kupffer cells in DMEM medium, supplemented with 2% BSA and 2 mM CaCl2; endogenous in cells; host or cells: primary Kupffer cells of liver
T2 sequence (P10716 1-550): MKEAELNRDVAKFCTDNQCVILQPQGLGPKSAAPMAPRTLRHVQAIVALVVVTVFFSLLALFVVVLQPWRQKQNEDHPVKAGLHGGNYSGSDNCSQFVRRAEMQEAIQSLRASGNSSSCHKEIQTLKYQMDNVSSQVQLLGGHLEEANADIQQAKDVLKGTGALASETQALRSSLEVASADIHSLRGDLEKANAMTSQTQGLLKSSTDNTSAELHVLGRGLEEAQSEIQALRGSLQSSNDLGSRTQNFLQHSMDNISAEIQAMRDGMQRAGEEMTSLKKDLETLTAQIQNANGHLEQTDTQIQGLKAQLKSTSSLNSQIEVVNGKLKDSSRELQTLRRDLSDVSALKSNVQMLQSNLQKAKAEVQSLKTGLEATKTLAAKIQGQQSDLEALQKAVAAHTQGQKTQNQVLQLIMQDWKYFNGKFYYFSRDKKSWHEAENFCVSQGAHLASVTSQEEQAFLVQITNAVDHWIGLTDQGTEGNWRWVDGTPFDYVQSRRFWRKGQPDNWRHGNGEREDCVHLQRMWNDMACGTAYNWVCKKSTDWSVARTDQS
Briefly: Inhibition of 125I-Lac-LDL binding to Kupffer cells. As to conditions: 4° C., 2 h. The procedure:
An idea of the specificity of cluster glycosides for the asialoglycoprotein receptor on the hepatic parenchymal cell can be obtained by comparing the affinity for this receptor with the affinity for the likewise galactose recognizing Fuc/Gal receptor on the hepatic Kupffer cell. […] To that end, Kupffer cells in DMEM medium, supplemented with 2% BSA and 2 mM CaCl2, are incubated at 4° C. for 2 h with 3 μg/ml ^125 I-Lac-LDL in the absence or presence of the compound, in a concentration range of 1 nM to 300 μM. After the incubation the binding of ^125 I-Lac-LDL to the Kupffer cells is determined in a manner identical to that for ^125 I-ASOR binding to liver parenchymal cells.

For experiment [3], the system named is rats. The experiment is described as follows: Serum cholesterol lowering after intravenous injection in rats. In kind it is in vivo, rat. As to conditions: injection into vena penis, 0.056-0.56 mg, FIG. 3. The procedure: This was verified as follows. Male rats (250-300 g) were anesthetized by means of ether, whereafter 500 gl PBS, having dissolved therein 0.56 mg, 0.18 mg, 0.056 mg or 0 mg TG(20 Å)-chol (formula 20) or 0.56 mg tris-glu-chol (formula 21): [drawing 19] was injected into the vena penis. At the times indicated in FIG. 3, blood samples of 300 μl were taken by means of orbital puncture. The blood samples were centrifuged (5 min; 1500 g) and the serum was used for a cholesterol assay by means of the CHOD-PAP kit of Boehringer Mannheim. 24 Hours after injection the rat was bled. The blood was centrifuged whereafter the serum was pipeted. Then the serum was subjected to gradient density ultracentrifugation and the various lipoprotein fractions were isolated: HDL (1.21<d<1.05), LDL (1.050<d<1.019), IDL (1.019<d<1.006) and VLDL (d<1.006). Finally, the total cholesterol concentrations of these lipoprotein fractions were assayed by means of the CHOD-PAP kit.

For experiment [4] the following is noted: cited from earlier work.
The subject of experiment [5] is rats. Briefly: In vivo fate of lipoprotein (a) charged with glycolipid in rats. Details: species or system rat. As to conditions: rats. From the text:
The so prepared TG(20 Å)-chol (formula 20): [drawing 24] can also be used to direct apo(a) to the hepatic parenchymal cell. High levels of lp(a) are correlated with the occurence of coronary and vascular diseases. To date, an adequate clinical therapy to alleviate the pathogenesis is not available. To investigate whether TG(20 Å)C can be used to stimulate the hepatic uptake and processing of lp(a) this, isolated lp(a) was charged with TG(20 Å)-chol according to a procedure that is known per se and the in vivo behaviour of the particle was studied. Lp(a) (50 μg) in PBS was incubated at 20° C. for 30 min with 0, 5, 15 and 50 μg TG(20 Å) (-chol). This charge led to a changed behaviour of the apo(a) after intravenous injection into rats. This is illustrated in FIG. 8. […] On account of the high […] of TG(20 Å)-chol, very rapidly an exchange of this compound occurs between lp(a) and other lipoproteins and lipid compartments. This then leads to a stabilization of the lp(a) level in the bloodstream after a few minutes.
^125 I-Lp(a) (50 μg) was mixed with 50 μg of TG(20 Å)C or TG(4 Å)C in 500 μl PBS. After 30 min at room temperature, the mixtures were injected into rats at a dose of 50 μg of apolipoprotein/kg body weight. Ten minutes after injection, parenchymal, endothelial and Kupffer cells were isolated from the liver and counted for radioactivity. Values are expressed as 10-3.% of the injected dose per mg of cellular protein and are means of 3 experiments ± s.e.m.

[6] abbreviates: read-out: Asialoglycoprotein receptor Ki.
Where [7] appears, read: read-out: Asialoglycoprotein receptor pKi (± S.E.) (converted).
[8] abbreviates: read-out: Fuc-Gal receptor pKi (converted).
[9] abbreviates: 125I-Lp(a) 50 μg + 50 μg glycolipid, 10 min after injection, mean ± s.e.m., 3 experiments.

Consider `COC(=O)CCCCC(=O)NCC(=O)NC(COCOCCOCCO[C@@H]1O[C@H](CO)[C@H](O)[C@H](O)[C@H]1O)(COCOCCOCCO[C@@H]1O[C@H](CO)[C@H](O)[C@H](O)[C@H]1O)COCOCCOCCO[C@@H]1O[C@H](CO)[C@H](O)[C@H](O)[C@H]1O` [Compound 15d], for which the Ki in experiment [1] (setting [6]) was 11 µM; in experiment [1] (setting [7]), 11.2 µM; in experiment [2] (read-out: Fuc-Gal receptor Ki), > 100 µM; in experiment [2] (setting [8]) it was > 100 µM.
As to `CC(C)CCC[C@@H](C)[C@H]1CC[C@H]2[C@@H]3CC=C4C[C@@H](OC(=O)CCC(=O)NCC(=O)NC(CO[C@@H]5O[C@H](CO)[C@@H](O)[C@H](O)[C@H]5O)(CO[C@@H]5O[C@H](CO)[C@@H](O)[C@H](O)[C@H]5O)CO[C@@H]5O[C@H](CO)[C@@H](O)[C@H](O)[C@H]5O)CC[C@]4(C)[C@H]3CC[C@]12C` [tris-glu-chol, reference compound], in experiment [3], the “Total serum cholesterol level” value is recorded as “does not lead to a change in the cholesterol level”.
Consider `COC(=O)CCCCC(=O)NCC(=O)NC(COCOCCCO[C@@H]1O[C@H](CO)[C@H](O)[C@H](O)[C@H]1O)(COCOCCCO[C@@H]1O[C@H](CO)[C@H](O)[C@H](O)[C@H]1O)COCOCCCO[C@@H]1O[C@H](CO)[C@H](O)[C@H](O)[C@H]1O` [Compound 15c], for which the “Relative affinity for the ASGPr (in words)” value in experiment [1] (from Table 2) is reported as “slightly higher affinity than TG(13 Å)”. In addition, the Ki in experiment [1] (setting [6]) is 1.2 µM; in experiment [1] (setting [7]) it was 1.23 µM; in experiment [2] (read-out: Fuc-Gal receptor Ki), > 100 µM; in experiment [2] (setting [8]) it was > 100 µM.
As for `COC(=O)CCCCC(=O)NCC(=O)NC(COCOCCOCCOCCOCCO[C@@H]1O[C@H](CO)[C@H](O)[C@H](O)[C@H]1O)(COCOCCOCCOCCOCCO[C@@H]1O[C@H](CO)[C@H](O)[C@H](O)[C@H]1O)COCOCCOCCOCCOCCO[C@@H]1O[C@H](CO)[C@H](O)[C@H](O)[C@H]1O` [Compound 15e], the Ki in experiment [1] (setting [6]) was 0.2 µM; in experiment [1] (setting [7]) it was 0.209 µM; in experiment [2] (read-out: Fuc-Gal receptor Ki) it was > 100 µM; in experiment [2] (setting [8]) it was > 100 µM.
For the compound `COC(=O)CCCCC(=O)NCC(=O)NC(COCOCCO[C@@H]1O[C@H](CO)[C@H](O)[C@H](O)[C@H]1O)(COCOCCO[C@@H]1O[C@H](CO)[C@H](O)[C@H](O)[C@H]1O)COCOCCO[C@@H]1O[C@H](CO)[C@H](O)[C@H](O)[C@H]1O` [Compound 15b], the Ki was 19 µM in experiment [1] (setting [6]), 19.1 µM in experiment [1] (setting [7]), > 100 µM in experiment [2] (read-out: Fuc-Gal receptor Ki) and > 100 µM in experiment [2] (setting [8]).
In the case of `COC(=O)CCCCC(=O)NCC(=O)NC(CO[C@@H]1O[C@H](CO)[C@H](O)[C@H](O)[C@H]1O)(CO[C@@H]1O[C@H](CO)[C@H](O)[C@H](O)[C@H]1O)CO[C@@H]1O[C@H](CO)[C@H](O)[C@H](O)[C@H]1O` [Compound 15a], the Ki was 390 µM in experiment [1] (setting [6]), 389 µM in experiment [1] (setting [7]), > 30 µM in experiment [2] (read-out: Fuc-Gal receptor Ki) and > 31.6 µM in experiment [2] (setting [8]).
Regarding `CC(C)CCC[C@@H](C)[C@H]1CC[C@H]2[C@@H]3CC=C4C[C@@H](OC(=O)CCC(=O)NCC(=O)NC(CO[C@@H]5O[C@H](CO)[C@H](O)[C@H](O)[C@H]5O)(CO[C@@H]5O[C@H](CO)[C@H](O)[C@H](O)[C@H]5O)CO[C@@H]5O[C@H](CO)[C@H](O)[C@H](O)[C@H]5O)CC[C@]4(C)[C@H]3CC[C@]12C` [tris-gal-chol], the “Removal of cholesterol from the bloodstream and liver uptake” value in experiment [4] is “capable of irreversibly removing cholesterol from the bloodstream and inducing cholesterol uptake by the liver”. Further, in experiment [4] (high doses necessary), the “Potency as hypolipidemic agent” value is reported as “low”. Besides, in experiment [4] (in vivo), the “Route of LDL removal after injection” value is “via the Fuc/Gal receptors on hepatic Kupffer cells”.
As for `CC(C)CCC[C@@H](C)[C@H]1CC[C@H]2[C@@H]3CC=C4C[C@@H](OC(=O)CCC(=O)NCC(=O)NC(CO[C@@H]5O[C@H](CO)[C@H](O)[C@H](O)[C@H]5O)(CO[C@@H]5O[C@H](CO)[C@H](O)[C@H](O)[C@H]5O)CO[C@@H]5O[C@H](CO)[C@H](O)[C@H](O)[C@H]5O)CC[C@]4(C)[C@H]3CC[C@]12C` [TG(4 Å)C, reference compound], in experiment [5] (setting [9]), the “Contribution to hepatic uptake of Lp(a), EC (endothelial cells)” value worked out at 10.4 ± 3% and the “Contribution to hepatic uptake of Lp(a), KC (Kupffer cells)” value is 80.3 ± 3%. Also, in experiment [5], the “Liver cell type location of charged lp(a) (in words)” value is listed as “mainly located in the Kupffer cell”.
